# Source: patent publication US11214803B2, “Modulators of YAP1 expression” (Ionis Pharmaceuticals, Inc., priority 2019, dated 2022)
# Strand notation (5' to 3'): a small letter for the sugar, then the base; units joined by * are phosphorothioate-linked, units joined directly phosphodiester-linked; [ ] holds rarer units or linkages, { } end groups; capitals alone tell only the bases. k = constrained ethyl (cEt); [5mC] = 5-methylcytosine; d = 2'-deoxy (DNA)
# System: Yap1 mRNA
# Experiment: Antisense inhibition of human Yap1 in A-431 cells by cEt gapmers, single dose (Example 2, RTS4814)
# Type: cell-based
# In short: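 Each 16-nucleoside gapmer (ten-deoxy gap, three-cEt wings) is tested once at 2,000 nM in A-431 cells by free uptake. Yap1 mRNA after about 48 hours is measured by quantitative RT-PCR and expressed relative to untreated control.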
# [1] = Table 22, Yap1 mRNA as percent of untreated control, 3-10-3 cEt gapmers, single dose
# [2] = Table 23, Yap1 mRNA as percent of untreated control, 3-10-3 cEt gapmers, single dose
# [3] = Table 33, Yap1 mRNA, percent of untreated control, 3-10-3 cEt gapmers targeting SEQ ID NO.: 1, and 2
# [4] = Yap1 mRNA as percent of untreated control, A-431 cells, 3-10-3 cEt gapmers targeting SEQ ID NO.: 1, and 2, Table 30
# [5] = Table 6, A-431 cells, 5,000 cells per well, free uptake, 2,000 nM modified oligonucleotide, approx. 48 hours, RTS4814, normalized to RIBOGREEN, Yap1 mRNA relative to untreated control cells
# [6] = Table 20, Yap1 mRNA, percent of untreated control, 3-10-3 cEt gapmers targeting SEQ ID NO.: 1 and 2
# [7] = Table 19, A-431 cells, 5,000 cells per well, free uptake, 2,000 nM modified oligonucleotide, approx. 48 hours, RTS4814, normalized to RIBOGREEN, Yap1 mRNA as percent of untreated control
# [8] = A-431 cells, 5,000 cells per well, free uptake, 2,000 nM modified oligonucleotide, approx. 48 hours, RTS4814, normalized to RIBOGREEN, Table 4, asterisk (*) = targets amplicon region of primer probe set
# [9] = Table 25, Yap1 mRNA as percent of untreated control, 3-10-3 cEt gapmers targeting SEQ ID NO.: 1, and 2
# [10] = Yap1 mRNA as percent of untreated control, A-431 cells, 3-10-3 cEt gapmers targeting SEQ ID NO.: 1, and 2, Table 31
# [11] = Table 5, A-431 cells, 5,000 cells per well, free uptake, 2,000 nM modified oligonucleotide, approx. 48 hours, RTS4814, normalized to RIBOGREEN, Yap1 mRNA relative to untreated control cells
substance,measurement,setting,value
1076402 (antisense k[5mC]*kG*kT*dA*dA*dT*dT*dA*dT*dT*dT*dT*dT*kG*k[5mC]*kT) [compound 1076402],YAP1 (% UTC),"Table 32, Yap1 mRNA, percent of untreated control, 3-10-3 cEt gapmers targeting SEQ ID NO.: 1, and 2",38 % UTC
1074984 (antisense kA*kT*k[5mC]*dA*d[5mC]*d[5mC]*dT*dT*dT*dT*dA*dT*dT*kG*k[5mC]*k[5mC]) [Compound 1074984],YAP1 (% UTC),[1],31 % UTC
1075401 (antisense k[5mC]*kG*kA*dT*dT*dA*dA*dA*dA*d[5mC]*dA*d[5mC]*dT*kG*kG*kT) [Compound 1075401],YAP1 (% UTC),[2],3 % UTC
1075603 (antisense kT*kA*kT*dG*dA*dA*d[5mC]*dA*dA*dG*dT*dA*dT*kG*kA*kG) [compound 1075603],YAP1 (% UTC),[3],35 % UTC
1075984 (kT*kA*kT*d[5mC]*dG*dA*dA*dA*dA*dG*d[5mC]*dA*dA*kA*k[5mC]*kT; antisense) [compound 1075984],YAP1 (% UTC),[4],44 % UTC
716534 (antisense kG*kA*kT*dT*dA*dT*dA*dA*dA*dA*dT*dT*dG*kG*kT*kT) [Compound 716534],YAP1 (% UTC),[5],90 % UTC
1076102 (k[5mC]*kT*kT*dA*dA*d[5mC]*dA*dA*dA*dT*d[5mC]*dA*dG*k[5mC]*k[5mC]*k[5mC]; antisense) [Compound 1076102],YAP1 (% UTC),[6],32 % UTC
1074768 (k[5mC]*kT*kT*dA*dT*d[5mC]*d[5mC]*d[5mC]*dA*dA*dT*dG*d[5mC]*kT*kA*k[5mC]; antisense) [compound 1074768],YAP1 (% UTC),[4],11 % UTC
1075653 (k[5mC]*kA*kT*dA*dA*dA*d[5mC]*dT*d[5mC]*dT*dG*d[5mC]*dT*kG*kT*k[5mC]; antisense) [Compound 1075653],YAP1 (% UTC),[7],58 % UTC
1075248 (kG*kT*kA*d[5mC]*dA*dA*dA*dA*dA*dG*d[5mC]*dG*dG*kT*k[5mC]*kG; antisense) [compound 1075248],YAP1 (% UTC),[4],64 % UTC
1075785 (k[5mC]*kA*kT*dT*dT*dT*dA*dT*dA*dG*dG*dG*d[5mC]*k[5mC]*kA*kT; antisense) [Compound 1075785],YAP1 (% UTC),[2],2 % UTC
716468 (kT*k[5mC]*kA*dT*d[5mC]*dA*dG*dA*dT*dA*dA*dT*dA*kT*k[5mC]*kT; antisense) [Compound 716468],YAP1 (% UTC),[5],118 % UTC
1075016 (antisense kT*k[5mC]*kA*dG*dA*dA*dT*dA*dA*dG*dT*dA*dT*kG*kA*kT) [Compound 1075016],YAP1 (% UTC),[1],100 % UTC
716502 (k[5mC]*kA*k[5mC]*dA*dG*dT*dG*dA*dT*dT*dG*d[5mC]*dA*kT*kT*kT; antisense) [Compound 716502],YAP1 (% UTC),[8],11 % UTC
716360 (k[5mC]*kT*kG*d[5mC]*d[5mC]*d[5mC]*dG*dG*dG*dA*dT*d[5mC]*d[5mC]*kA*kT*kG; antisense) [Compound 716360],YAP1 (% UTC),[5],118 % UTC
1075440 (antisense kA*kA*kA*dT*dT*dA*dT*dT*dA*dG*dT*dT*dG*kT*k[5mC]*kG) [compound 1075440],YAP1 (% UTC),[4],28 % UTC
1074355 (antisense kA*kG*kG*dG*dA*d[5mC]*dA*d[5mC]*dT*dG*dT*dA*dG*k[5mC]*kT*kG) [compound 1074355],YAP1 (% UTC),[3],55 % UTC
716517 (antisense kT*kT*k[5mC]*dA*d[5mC]*dA*dA*d[5mC]*d[5mC]*d[5mC]*d[5mC]*d[5mC]*d[5mC]*k[5mC]*k[5mC]*k[5mC]) [Compound 716517],YAP1 (% UTC),[8],53 % UTC
1074596 (antisense kT*kT*k[5mC]*dT*dA*dT*d[5mC]*d[5mC]*dA*dG*dG*dG*dT*k[5mC]*kA*kA) [Compound 1074596],YAP1 (% UTC),"Table 18, A-431 cells, 5,000 cells per well, free uptake, 2,000 nM modified oligonucleotide, approx. 48 hours, RTS4814, normalized to RIBOGREEN, Yap1 mRNA as percent of untreated control",12 % UTC
1074344 (antisense kT*kG*kA*dG*dA*d[5mC]*dA*dT*d[5mC]*d[5mC]*d[5mC]*dG*dG*kG*kA*kG) [Compound 1074344],YAP1 (% UTC),[1],99 % UTC
1074987 (antisense kG*k[5mC]*k[5mC]*dG*d[5mC]*dG*dG*d[5mC]*dT*d[5mC]*d[5mC]*d[5mC]*dG*kA*kG*k[5mC]) [Compound 1074987],YAP1 (% UTC),[9],94 % UTC
1075434 (antisense kG*kT*kA*dA*dA*dA*dG*dA*dG*dG*dT*dG*d[5mC]*kA*kT*k[5mC]) [Compound 1075434],YAP1 (% UTC),"Table 24, Yap1 mRNA as percent of untreated control, 3-10-3 cEt gapmers targeting SEQ ID NO.: 1, and 2",96 % UTC
1075177 (antisense kG*kA*kA*dA*dT*dT*dA*d[5mC]*d[5mC]*d[5mC]*dG*dG*dG*kA*kA*k[5mC]) [Compound 1075177],YAP1 (% UTC),[2],27 % UTC
1074513 (kA*kG*kG*dA*dT*dA*d[5mC]*dA*dT*dT*d[5mC]*d[5mC]*dA*k[5mC]*kT*kA; antisense) [compound 1074513],YAP1 (% UTC),[10],47 % UTC
716575 (kA*kA*kA*dG*dA*dA*d[5mC]*dT*dT*dA*dG*dT*dT*k[5mC]*k[5mC]*k[5mC]; antisense) [Compound 716575],YAP1 (% UTC),[11],84 % UTC
1076177 (k[5mC]*kT*kT*dT*dA*dT*dT*dT*d[5mC]*d[5mC]*d[5mC]*dA*d[5mC]*k[5mC]*k[5mC]*kG; antisense) [compound 1076177],YAP1 (% UTC),[10],37 % UTC
1074214 (antisense kT*k[5mC]*k[5mC]*dG*dG*d[5mC]*dG*dG*d[5mC]*dT*dT*dG*dA*kA*kG*kA) [Compound 1074214],YAP1 (% UTC),[6],89 % UTC
1074635 (antisense kT*k[5mC]*k[5mC]*d[5mC]*dA*dA*dG*d[5mC]*dT*dG*dA*dG*dG*k[5mC]*kT*kT) [Compound 1074635],YAP1 (% UTC),[9],31 % UTC
1074376 (antisense kA*kA*k[5mC]*dG*dG*dT*dT*d[5mC]*dT*dG*d[5mC]*dT*dG*kT*kG*kA) [Compound 1074376],YAP1 (% UTC),[1],44 % UTC
716391 (kG*kG*kA*dG*d[5mC]*dA*d[5mC]*dT*d[5mC]*dT*dG*dA*d[5mC]*kT*kG*kA; antisense) [Compound 716391],YAP1 (% UTC),[8],44 % UTC
1075243 (antisense k[5mC]*kT*kT*dA*dG*dT*dA*dA*dG*dA*dA*dT*dT*kG*kT*k[5mC]) [Compound 1075243],YAP1 (% UTC),[9],4 % UTC
1076007 (k[5mC]*kA*kT*dT*dA*dG*dG*d[5mC]*d[5mC]*dT*dT*dT*dT*kA*k[5mC]*kT; antisense) [Compound 1076007],YAP1 (% UTC),"Table 21, Yap1 mRNA, percent of untreated control, 3-10-3 cEt gapmers targeting SEQ ID NO.: 1 and 2",27 % UTC
1075109 (antisense kA*k[5mC]*kT*dA*dA*dA*dA*dA*d[5mC]*dA*dT*dT*dG*kT*kG*kG) [Compound 1075109],YAP1 (% UTC),[7],71 % UTC
1075464 (antisense k[5mC]*k[5mC]*kA*d[5mC]*dT*dA*dA*dA*d[5mC]*d[5mC]*dA*d[5mC]*d[5mC]*kT*kA*kA) [Compound 1075464],YAP1 (% UTC),[1],77 % UTC
716533 (antisense k[5mC]*kA*kA*dT*dT*d[5mC]*dA*dA*dG*dA*dA*dT*dA*k[5mC]*k[5mC]*k[5mC]) [Compound 716533],YAP1 (% UTC),[11],64 % UTC
716357 (k[5mC]*kG*k[5mC]*d[5mC]*d[5mC]*d[5mC]*dG*dG*d[5mC]*dT*d[5mC]*d[5mC]*dA*k[5mC]*kG*kG; antisense) [Compound 716357],YAP1 (% UTC),[5],127 % UTC
1075045 (antisense kA*kA*kA*dT*dT*dA*dG*dA*d[5mC]*dT*d[5mC]*d[5mC]*d[5mC]*k[5mC]*k[5mC]*kA) [Compound 1075045],YAP1 (% UTC),[7],18 % UTC
716423 (kG*k[5mC]*kA*dA*dA*dA*dT*dA*dG*dA*dG*dG*dA*kT*kT*kA; antisense) [Compound 716423],YAP1 (% UTC),[5],43 % UTC
1075945 (kG*kT*kA*dT*dT*dA*dG*dG*dA*dA*d[5mC]*dA*dG*kA*kT*k[5mC]; antisense) [Compound 1075945],YAP1 (% UTC),[2],11 % UTC
